# Data: patent publication US8088815B2, “Spiroindolinone pyrrolidines” (Hoffman-La Roche Inc., priority 2009, dated 2012)
# pIC50: −log10 of the molar value.
# Target: interaction between p53 and MDM2 proteins (Homo sapiens, UniProt Q00987)
# Assay: HTRF assay of inhibition of the p53-MDM2 interaction (GST-MDM2 / biotinylated p53 peptide)
# Assay type: binding
# Details: recombinant GST-tagged MDM2 and biotinylated p53 peptide, bsa:0.02%
# Sequence of interaction between p53 and MDM2 proteins (Q00987 whole entry): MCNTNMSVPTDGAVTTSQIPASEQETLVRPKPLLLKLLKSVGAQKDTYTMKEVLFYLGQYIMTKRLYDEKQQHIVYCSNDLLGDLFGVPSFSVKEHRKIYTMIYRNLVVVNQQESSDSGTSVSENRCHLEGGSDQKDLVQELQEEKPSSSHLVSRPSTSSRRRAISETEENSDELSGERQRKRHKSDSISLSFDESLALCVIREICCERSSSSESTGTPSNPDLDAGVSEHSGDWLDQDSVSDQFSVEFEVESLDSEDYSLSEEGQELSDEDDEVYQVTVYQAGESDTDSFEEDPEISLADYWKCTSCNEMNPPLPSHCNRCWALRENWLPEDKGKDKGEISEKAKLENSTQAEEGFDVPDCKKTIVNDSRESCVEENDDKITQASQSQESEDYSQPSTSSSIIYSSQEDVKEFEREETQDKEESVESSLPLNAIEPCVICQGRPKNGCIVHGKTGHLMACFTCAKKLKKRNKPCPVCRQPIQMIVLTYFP
row,SMILES,pIC50
1,"Cn1cccc1NC(=O)[C@@H]1N[C@@H](CC(C)(C)C)[C@@]2(C(=O)Nc3cc(Cl)ccc32)[C@H]1c1cccc(Cl)c1F (racemic) [Example 195, rac-(2′S,3′R,4′S,5′R)-6-chloro-4′-(3-chloro-2-fluoro-phenyl)-2′-(2,2-dimethyl-propyl)-2-oxo-1,2-dihydro-spiro[indole-3,3′-pyrrolidine]-5′-carboxylic acid (1-methyl-1H-pyrrol-2-yl)-amide]",7.82
2,"CCOC(=O)c1csc(NC(=O)[C@@H]2N[C@@H](CC(C)(C)C)[C@@]3(C(=O)Nc4cc(Cl)ccc43)[C@H]2c2cccc(Cl)c2F)n1 (racemic) [Example 196, rac-2-{[(2′S,3′R,4′S,5′R)-6-chloro-4′-(3-chloro-2-fluoro-phenyl)-2′-(2,2-dimethyl-propyl)-2-oxo-1,2-dihydro-spiro[indole-3,3′-pyrrolidine]-5′-carbonyl]-amino}-thiazole-4-carboxylic acid ethyl ester]",7.30
3,"CC(C)(C)C[C@@H]1N[C@@H](C(=O)Nc2nc(C(=O)O)cs2)[C@H](c2cccc(Cl)c2F)[C@]12C(=O)Nc1cc(Cl)ccc12 (racemic) [Example 197, rac-2-{[(2′S,3′R,4′S,5′R)-6-chloro-4′-(3-chloro-2-fluoro-phenyl)-2′-(2,2-dimethyl-propyl)-2-oxo-1,2-dihydro-spiro[indole-3,3′-pyrrolidine]-5′-carbonyl]amino}-thiazole-4-carboxylic acid]",7.29
4,"CC(C)(C)C[C@@H]1N[C@@H](C(=O)Nc2nc(C(N)=O)cs2)[C@H](c2cccc(Cl)c2F)[C@]12C(=O)Nc1cc(Cl)ccc12 (racemic) [Example 198, rac-(2′S,3′R,4′S,5′R)-6-chloro-4′-(3-chloro-2-fluoro-phenyl)-2′-(2,2-dimethyl-propyl)-2-oxo-1,2-dihydro-spiro[indole-3,3′-pyrrolidine]-5′-carboxylic acid (4-carbamoyl-thiazol-2-yl)-amide]",7.92
5,"CC(C)(C)C[C@@H]1N[C@@H](C(=O)Nc2ccc(OCC(=O)O)cc2)[C@H](c2cccc(Cl)c2F)[C@]12C(=O)Nc1cc(Cl)ccc12 (racemic) [Example 206, rac-(4-{[(2′S,3′R,4′S,5′R)-6-chloro-4′-(3-chloro-2-fluoro-phenyl)-2′-(2,2-dimethyl-propyl)-2-oxo-1,2-dihydro-spiro[indole-3,3′-pyrrolidine]-5′-carbonyl]amino}-phenoxy)-acetic acid]",8.22
6,"CC(C)(C)C[C@@H]1N[C@@H](C(=O)Nc2ccc(CCC(=O)O)cc2)[C@H](c2cccc(Cl)c2F)[C@]12C(=O)Nc1cc(Cl)ccc12 (racemic) [Example 209, rac-3-(4-{[(2′S,3′R,4′S,5′R)-6-chloro-4′-(3-chloro-2-fluoro-phenyl)-2′-(2,2-dimethyl-propyl)-2-oxo-1,2-dihydro-spiro[indole-3,3′-pyrrolidine]-5′-carbonyl]-amino}-phenyl)-propionic acid]",8.40
7,"CC(C)(C)C[C@@H]1N[C@@H](C(=O)Nc2ccc(OCC(N)=O)cc2)[C@H](c2cccc(Cl)c2F)[C@]12C(=O)Nc1cc(Cl)ccc12 (racemic) [Example 210, rac-(2′S,3′R,4′S,5′R)-6-chloro-4′-(3-chloro-2-fluoro-phenyl)-2′-(2,2-dimethyl-propyl)-2-oxo-1,2-dihydro-spiro[indole-3,3′-pyrrolidine]-5′-carboxylic acid (4-carbamoylmethoxy-phenyl)-amide]",7.82
8,"CC(C)(C)C[C@@H]1N[C@@H](C(=O)Nc2ccc(CCC(N)=O)cc2)[C@H](c2cccc(Cl)c2F)[C@]12C(=O)Nc1cc(Cl)ccc12 (racemic) [Example 211, rac-(2′S,3′R,4′S,5′R)-6-chloro-4′-(3-chloro-2-fluoro-phenyl)-2′-(2,2-dimethyl-propyl)-2-oxo-1,2-dihydro-spiro[indole-3,3′-pyrrolidine]-5′-carboxylic acid [4-(2-carbamoyl-ethyl)-phenyl]-amide]",7.82
9,"COC(=O)c1cc2cc(NC(=O)[C@@H]3N[C@@H](CC(C)(C)C)[C@@]4(C(=O)Nc5cc(Cl)ccc54)[C@H]3c3cccc(Cl)c3F)ccc2s1 (racemic) [Example 212, rac-5-{[(2′S,3′R,4′S,5′R)-6-chloro-4′-(3-chloro-2-fluoro-phenyl)-2′-(2,2-dimethyl-propyl)-2-oxo-1,2-dihydro-spiro[indole-3,3′-pyrrolidine]-5′-carbonyl]amino}-benzo[b]thiophene-2-carboxylic acid methyl ester]",7.74
10,"CC(C)(C)C[C@@H]1N[C@@H](C(=O)Nc2ccc3sc(C(=O)O)cc3c2)[C@H](c2cccc(Cl)c2F)[C@]12C(=O)Nc1cc(Cl)ccc12 (racemic) [Example 213, rac-5-{[(2′S,3′R,4′S,5′R)-6-chloro-4′-(3-chloro-2-fluoro-phenyl)-2′-(2,2-dimethyl-propyl)-2-oxo-1,2-dihydro-spiro[indole-3,3′-pyrrolidine]-5′-carbonyl]amino}-benzo[b]thiophene-2-carboxylic acid]",7.85
11,"COC(=O)c1cc(OC)c(NC(=O)[C@@H]2N[C@@H](CC(C)(C)C)[C@@]3(C(=O)Nc4cc(Cl)ccc43)[C@H]2c2cccc(Cl)c2F)cc1F (racemic) [Example 214, rac-4-{[(2′S,3′R,4′S,5′R)-6-chloro-4′-(3-chloro-2-fluoro-phenyl)-2′-(2,2-dimethyl-propyl)-2-oxo-1,2-dihydro-spiro[indole-3,3′-pyrrolidine]-5′-carbonyl]amino}-2-fluoro-5-methoxy-benzoic acid methyl ester]",7.70
12,"COc1cc(C(=O)O)c(F)cc1NC(=O)[C@@H]1N[C@@H](CC(C)(C)C)[C@@]2(C(=O)Nc3cc(Cl)ccc32)[C@H]1c1cccc(Cl)c1F (racemic) [Example 215, rac-4-{[(2′S,3′R,4′S,5′R)-6-chloro-4′-(3-chloro-2-fluoro-phenyl)-2′-(2,2-dimethyl-propyl)-2-oxo-1,2-dihydro-spiro[indole-3,3′-pyrrolidine]-5′-carbonyl]-amino}-2-fluoro-5-methoxy-benzoic acid]",7.96
13,"CCOC(=O)CNc1ccc(NC(=O)[C@@H]2N[C@@H](CC(C)(C)C)[C@@]3(C(=O)Nc4cc(Cl)ccc43)[C@H]2c2cccc(Cl)c2F)cc1 (racemic) [Example 217, rac-(4-{[(2′S,3′R,4′S,5′R)-6-chloro-4′-(3-chloro-2-fluoro-phenyl)-2′-(2,2-dimethyl-propyl)-2-oxo-1,2-dihydro-spiro[indole-3,3′-pyrrolidine]-5′-carbonyl]-amino}-phenylamino)-acetic acid ethyl ester]",7.89
14,"CC(C)(C)C[C@@H]1N[C@@H](C(=O)Nc2ccc(NCC(=O)O)cc2)[C@H](c2cccc(Cl)c2F)[C@]12C(=O)Nc1cc(Cl)ccc12 (racemic) [Example 218, rac-(4-{[(2′S,3′R,4′S,5′R)-6-chloro-4′-(3-chloro-2-fluoro-phenyl)-2′-(2,2-dimethyl-propyl)-2-oxo-1,2-dihydro-spiro[indole-3,3′-pyrrolidine]-5′-carbonyl]amino}-phenylamino)-acetic acid]",7.80
15,"CCOC(=O)Cc1ccc(NC(=O)[C@@H]2N[C@@H](CC(C)(C)C)[C@@]3(C(=O)Nc4cc(Cl)ccc43)[C@H]2c2cccc(Cl)c2F)cc1 (racemic) [Example 219, rac-(4-{[(2′S,3′R,4′S,5′R)-6-chloro-4′-(3-chloro-2-fluoro-phenyl)-2′-(2,2-dimethyl-propyl)-2-oxo-1,2-dihydro-spiro[indole-3,3′-pyrrolidine]-5′-carbonyl]amino}-phenyl)-acetic acid ethyl ester]",7.89
16,"CC(C)(C)C[C@@H]1N[C@@H](C(=O)Nc2ccc(CC(=O)O)cc2)[C@H](c2cccc(Cl)c2F)[C@]12C(=O)Nc1cc(Cl)ccc12 (racemic) [Example 220, rac-(4-{[(2′S,3′R,4′S,5′R)-6-chloro-4′-(3-chloro-2-fluoro-phenyl)-2′-(2,2-dimethyl-propyl)-2-oxo-1,2-dihydro-spiro[indole-3,3′-pyrrolidine]-5′-carbonyl]-amino}-phenyl)-acetic acid]",7.82
17,"COc1cc(OCC[S+](C)[O-])ccc1NC(=O)[C@@H]1N[C@@H](CC(C)(C)C)[C@@]2(C(=O)Nc3cc(Cl)ccc32)[C@H]1c1cccc(Cl)c1F (single isomer, unassigned) [Example 171, chiral (2′S,3′R,4′S,5′R)-6-chloro-4′-(3-chloro-2-fluoro-phenyl)-2′-(2,2-dimethyl-propyl)-2-oxo-1,2-dihydro-spiro[indole-3,3′-pyrrolidine]-5′-carboxylic acid [4-(2-methanesulfinyl-ethoxy)-2-methoxy-phenyl]-amide]",8.22
18,"CC(C)(C)C[C@@H]1N[C@@H](C(=O)Nc2ccc(C(N)=O)cc2)[C@H](c2cccc(Cl)c2F)[C@]12C(=O)Nc1cc(Cl)ccc12 [Example 9, chiral (2′S,3′R,4′S,5′R)-6-chloro-4′-(3-chloro-2-fluoro-phenyl)-2′-(2,2-dimethyl-propyl)-2-oxo-1,2-dihydro-spiro[indole-3,3′-pyrrolidine]-5′-carboxylic acid (4-carbamoyl-phenyl)-amide]",8.40
19,"CC(=O)c1ccc(NC(=O)[C@@H]2N[C@@H](CC(C)(C)C)[C@@]3(C(=O)Nc4cc(Cl)ccc43)[C@H]2c2cccc(Cl)c2F)cc1 [Example 12, chiral (2′S,3′R,4′S,5′R)-6-chloro-4′-(3-chloro-2-fluoro-phenyl)-2′-(2,2-dimethyl-propyl)-2-oxo-1,2-dihydro-spiro[indole-3,3′-pyrrolidine]-5′-carboxylic acid (4-acetyl-phenyl)-amide]",8.22
20,"COc1cc(NC(=O)[C@@H]2N[C@@H](CC(C)(C)C)[C@@]3(C(=O)Nc4cc(Cl)ccc43)[C@H]2c2cccc(Cl)c2F)ccc1C(=O)O [Example 17, chiral 4-{[(2′S,3′R,4′S,5′R)-6-chloro-4′-(3-chloro-2-fluoro-phenyl)-2′-(2,2-dimethyl-propyl)-2-oxo-1,2-dihydro-spiro[indole-3,3′-pyrrolidine]-5′-carbonyl]-amino}-2-methoxy-benzoic acid]",8.40
21,"CC(C)(C)C[C@@H]1N[C@@H](C(=O)Nc2ccc(OCCO)cc2)[C@H](c2cccc(Cl)c2F)[C@]12C(=O)Nc1cc(Cl)ccc12 [Example 20, chiral (2′S,3′R,4′S,5′R)-6-chloro-4′-(3-chloro-2-fluoro-phenyl)-2′-(2,2-dimethyl-propyl)-2-oxo-1,2-dihydro-spiro[indole-3,3′-pyrrolidine]-5′-carboxylic acid [4-(2-hydroxy-ethoxy)-phenyl]-amide]",8.15
